The source made the active and inactive calls. The rule behind the calls is not given here.

The target in one assay is T1, Transcriptional activator protein LuxR (Aliivibrio fischeri, UniProt P12746).
T1 sequence (P12746 whole entry): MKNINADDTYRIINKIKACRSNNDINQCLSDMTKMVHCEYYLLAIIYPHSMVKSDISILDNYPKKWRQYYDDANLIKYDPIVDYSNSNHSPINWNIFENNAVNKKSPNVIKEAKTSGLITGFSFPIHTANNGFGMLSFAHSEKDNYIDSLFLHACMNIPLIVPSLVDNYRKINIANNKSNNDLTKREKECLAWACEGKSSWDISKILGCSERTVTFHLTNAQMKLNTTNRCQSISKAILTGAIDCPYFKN
The experiment in a line: Inhibition of LuxR-dependent Vibrio fischeri quorum sensing assessed as reduction in 3-oxo-hexanoyihomoserine-induced bioluminescence.
In general, IC50 refers to the point on the concentration scale where inhibition reaches its midpoint. Regarding `CCCCCC(=O)NC1=C(Cl)COC1=O`, the IC50 was found to be 6.9 µM.

With `CCCCCC(=O)NC1=C(Br)COC1=O`, the IC50 stood at 6.5 µM.

As for `O=C(CCCc1ccccc1)NC1=C(Br)COC1=O`, the IC50 amounted to 84 µM.

In the case of `CCCCCC(=O)NC1=CCOC1=O`, the IC50 came out at 85 µM.

With `CCCC(=O)CC(=O)NC1=CCOC1=O`, the IC50 worked out at 55 µM.

In another assay the target is T2, Transcriptional activator protein LuxR (Aliivibrio fischeri) (UniProt P12746).
T2 sequence (whole entry): T1 sequence (P12746 whole entry)
The assay can be described thus: Inhibition of LuxR-dependent Vibrio fischeri quorum sensing assessed as reduction in 3-oxo-hexanoyihomoserine-induced bioluminescence upto 100 uM.
With `O=C(CCCc1ccccc1)NC1=CCOC1=O`, the result was inactive.

The values above are taken from ChEMBL document CHEMBL1155864, “N-Acyl-3-amino-5H-furanone derivatives as new inhibitors of LuxR-dependent quorum sensing: Synthesis, biological evaluation and binding mode study” (Bioorg Med Chem Lett, 2008).
